Like-named read-outs stand apart in the source and are kept apart here.
Legend:
Assay type in all cases: in vivo
Phakopsora pachyrhizi = assay: Asian soybean rust (PHAKPA), disease control on soybean seedlings; details: High volume application at 25 ppm
Description: Technical grades of materials were dissolved in acetone, which were then mixed with nine volumes of water containing 0.011% Tween 20. The fungicide solutions were applied onto soybean seedlings using an automated booth sprayer to run-off. All sprayed plants were allowed to air dry prior to further handling.
Soybean plants (variety Williams 82) were grown in soil-less Metro mix, with one plant per pot. Two week old seedlings were used for testing. Plants were inoculated either 3 days prior to or 1 day after fungicide treatments. Plants were incubated for 24 h in a dark dew room at 22° C. and 100% relative humidity then transferred to a growth room at 23° C. for disease to develop. Disease severity was assessed on the sprayed leaves.

Zymoseptoria tritici = assay: Leaf blotch of wheat (SEPTTR), disease control on wheat seedlings; details: for pest or weed control at 121.5 g/ha: low volume application at 121.5 g/H; for pest or weed control at 100 ppm: high volume application at 100 ppm
In short: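 Z. tritici spores were inoculated onto wheat seedlings (Yuma, first leaf emerged) either before or after treatment. Treatment was an automated spray to run-off of acetone/Triton X-100 water solutions, or a track spray of EC formulations with 0.1% Trycol 5941. Plants were held in dew chambers at 20 °C and then a greenhouse at 20 °C. First-leaf severity (0–100%) was converted to percent control against untreated plants.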

Puccinia triticina = assay: Wheat brown rust (PUCCRT), disease control on wheat seedlings; details: for pest or weed control at 121.5 g/ha: low volume application at 121.5 g/H; for pest or weed control at 100 ppm: high volume application at 100 ppm
In short: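 Compounds in acetone, diluted with nine volumes of water containing 110 ppm Triton X-100, sprayed to run-off on first-leaf Yuma wheat seedlings; track-spray tests used EC formulations with 0.1% Trycol 5941. Puccinia triticina spores applied before or after treatment. Overnight dark dew room at 22° C, 100% humidity, then greenhouse at 24° C.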

[1] = 24 h, 1 Day Protectant, read-out: PHAKPA 1DP disease control rating
[2] = 72 h, 3 Day Curative, read-out: PHAKPA 3DC disease control rating
[3] = 24 h, 1 Day Protectant, read-out: SEPTTR disease control, 1DP, LV activity
[4] = 72 h, 3 Day Curative, read-out: SEPTTR disease control, 3DC, LV activity
[5] = 24 h, 1 Day Protectant, read-out: PUCCRT disease control, 1DP, LV activity
[6] = 72 h, 3 Day Curative, read-out: PUCCRT disease control, 3DC, LV activity
[7] = 24 h, 1 Day Protectant, read-out: SEPTTR disease control, 1DP, HV activity
[8] = 72 h, 3 Day Curative, read-out: SEPTTR disease control, 3DC, HV activity
[9] = 24 h, 1 Day Protectant, read-out: PUCCRT disease control, 1DP, HV activity
[10] = 72 h, 3 Day Curative, read-out: PUCCRT disease control, 3DC, HV activity

| Structure (SMILES) | pest or weed control at 25 ppm (Phakopsora pachyrhizi; [1]) [%] | pest or weed control at 25 ppm (Phakopsora pachyrhizi; [2]) [%] | pest or weed control at 121.5 g/ha (Zymoseptoria tritici; [3]) [%] | pest or weed control at 121.5 g/ha (Zymoseptoria tritici; [4]) [%] | pest or weed control at 121.5 g/ha (Puccinia triticina; [5]) [%] | pest or weed control at 121.5 g/ha (Puccinia triticina; [6]) [%] | pest or weed control at 100 ppm (Zymoseptoria tritici; [7]) [%] | pest or weed control at 100 ppm (Zymoseptoria tritici; [8]) [%] | pest or weed control at 100 ppm (Puccinia triticina; [9]) [%] | pest or weed control at 100 ppm (Puccinia triticina; [10]) [%] |
| --- | --- | --- | --- | --- | --- | --- | --- | --- | --- | --- |
| COCCC(=O)Oc1c(OC)ccnc1C(=O)N[C@@H](CC(C)C)C(=O)O[C@@H](C)[C@H](c1ccc(F)cc1C)C(C)C [Compound 353] | > 80 | < 80 | < 80 | < 80 | < 80 | < 80 |  |  |  |  |
| COc1ccnc(C(=O)N[C@@H](C)C(=O)O[C@@H](C)[C@H](c2ccc(Cl)cc2)C(C)C)c1OC(C)=O [Compound 242] | > 80 | < 80 | > 80 | > 80 | > 80 | > 80 |  |  |  |  |
| CCC(CC)[C@@H](c1ccc(F)cc1OC)[C@H](C)OC(=O)[C@H](C)NC(=O)c1nccc(OC)c1OC(C)=O [Compound 229] | > 80 | < 80 | > 80 | > 80 | > 80 | < 80 |  |  |  |  |
| COCCC(=O)Oc1c(OC)ccnc1C(=O)N[C@@H](C)C(=O)O[C@@H](C)[C@H](c1ccc(F)cc1OC)C(C)C [Compound 239] | > 80 | > 80 | > 80 | < 80 | > 80 | > 80 |  |  |  |  |
| COc1cc(F)ccc1[C@H](C1CCCC1)[C@H](C)OC(=O)[C@H](C)NC(=O)c1nccc(OC)c1OCOC(C)=O [Compound 235] | > 80 | < 80 | < 80 | < 80 | > 80 | < 80 |  |  |  |  |
| COCCC(=O)Oc1c(OC)ccnc1C(=O)N[C@@H](C)C(=O)O[C@@H](C)[C@H](c1ccc(OC)cc1F)C(C)C [Compound 247] |  |  | < 80 |  | > 80 | > 80 |  |  |  |  |
| COc1ccnc(C(=O)N[C@@H](C)C(=O)O[C@@H](C)[C@H](c2ccc(F)cc2)C2CC2)c1OC(C)=O [Compound 170] |  |  | > 80 | > 80 | > 80 | > 80 |  |  |  |  |
| COc1ccnc(C(=O)N[C@@H](C)C(=O)O[C@@H](C)[C@@H](c2ccccc2)C2CCCC2)c1OC(C)=O [Compound 161] |  |  | < 80 | > 80 | > 80 | < 80 |  |  |  |  |
| COc1ccnc(C(=O)N[C@@H](C)C(=O)O[C@@H](C)[C@@H](c2ccc(F)cc2C)C2CCCCC2)c1O [Compound 119] |  |  |  |  |  |  | > 80 | > 80 | > 80 | < 80 |
| COc1cc(F)ccc1[C@@H](C(C)C)[C@H](C)OC(=O)[C@H](C)NC(=O)c1nccc(OC)c1O [Compound 138] |  |  |  |  |  |  | < 0 | < 0 | > 80 | > 80 |
| COc1ccnc(C(=O)N[C@@H](C)C(=O)O[C@@H](C)[C@H](c2ccc(C)cc2)C(C)C)c1OCOC(C)=O [Compound 255] |  |  | < 80 |  | > 80 | > 80 |  |  |  |  |
| COc1ccnc(C(=O)N[C@@H](C)C(=O)O[C@@H](C)[C@@H](c2ccc(F)cc2C)C2CCC2)c1O [Compound 121] |  |  |  |  |  |  | < 80 | > 80 | > 80 | < 80 |
| COc1ccnc(C(=O)N[C@@H](C)C(=O)OC(C)[C@H](c2ccccc2)C2CCCC2)c1OC(C)=O (stereo partly drawn) [Compound 173] |  |  | > 80 | > 80 | > 80 | < 80 |  |  |  |  |
| COc1ccnc(C(=O)N[C@@H](C)C(=O)O[C@@H](C)[C@H](c2ccc(F)cc2C)C2CCC2)c1O [Compound 127] |  |  |  |  |  |  | > 80 | < 80 | > 80 | > 80 |
| COc1ccnc(C(=O)N[C@@H](C)C(=O)OC(C)[C@H](c2ccccc2)C2CCCC2)c1OCOC(C)=O (stereo partly drawn) [Compound 175] |  |  | > 80 | > 80 | > 80 | > 80 |  |  |  |  |
| COc1cc(F)ccc1[C@@H](C1CCC1)[C@H](C)OC(=O)[C@H](C)NC(=O)c1nccc(OC)c1O [Compound 142] |  |  |  |  |  |  | < 0 | < 80 | > 80 | > 80 |
| COc1ccc([C@H](C(C)C)[C@H](C)OC(=O)[C@H](C)NC(=O)c2nccc(OC)c2OC(C)=O)c(OC)c1 [Compound 262] |  |  | < 80 | < 80 | > 80 | < 80 |  |  |  |  |
| COc1ccnc(C(=O)N[C@@H](C)C(=O)O[C@H](C)[C@H](c2ccc(F)cc2C)C2CCCCC2)c1O [Compound 129] |  |  |  |  |  |  | > 80 | < 80 | > 80 | < 0 |
| COc1ccnc(C(=O)N[C@@H](C)C(=O)O[C@@H](C)[C@H](c2ccccc2F)C(C)C)c1O [Compound 323] |  |  |  |  |  |  | < 80 | > 80 | > 80 | > 80 |
| COc1ccnc(C(=O)N[C@@H](C)C(=O)O[C@H](C)[C@H](c2ccc(F)cc2C)C(C)C)c1O [Compound 130] |  |  |  |  |  |  | < 80 | < 80 | > 80 | < 80 |
| COc1ccnc(C(=O)N[C@@H](C)C(=O)O[C@@H](C)[C@H](c2cc(C)ccc2C)C(C)C)c1O [Compound 321] |  |  |  |  |  |  | < 80 | < 80 | > 80 | > 80 |
| COc1cc(F)ccc1[C@H](C1CCCCC1)[C@H](C)OC(=O)[C@H](C)NC(=O)c1nccc(OC)c1O [Compound 143] |  |  |  |  |  |  | > 80 | < 80 | > 80 | > 80 |
| COc1ccnc(C(=O)N[C@@H](C)C(=O)O[C@@H](C)[C@@H](c2ccc(C)cc2C)C(C)C)c1O [Compound 131] |  |  |  |  |  |  | < 80 | < 80 | > 80 | > 80 |
| COc1ccnc(C(=O)N[C@@H](C)C(=O)O[C@@H](C)[C@H](c2ccc(Cl)cc2Cl)C(C)C)c1O [Compound 330] |  |  |  |  |  |  | < 80 | < 80 | > 80 | > 80 |
| COc1ccnc(C(=O)N[C@@H](C)C(=O)O[C@@H](C)[C@H](c2ccc(F)cc2C)C2CCCC2)c1O [Compound 122] |  |  |  |  |  |  | > 80 | < 80 | > 80 | > 80 |
| COc1ccc([C@H](C(C)C)[C@H](C)OC(=O)[C@H](C)NC(=O)c2nccc(OC)c2OCOC(C)=O)c(C)c1 [Compound 260] |  |  | > 80 |  | > 80 | > 80 |  |  |  |  |
| COc1ccnc(C(=O)N[C@@H](C)C(=O)OC(C)C(c2ccc(F)cc2)C(C)C)c1OC(C)=O (stereo partly drawn) [Compound 169] |  |  | < 80 | > 80 | > 80 | > 80 |  |  |  |  |
| CCC(C)[C@H](c1ccc(C)cc1C)[C@H](C)OC(=O)[C@H](C)NC(=O)c1nccc(OC)c1O (stereo partly drawn) [Compound 134] |  |  |  |  |  |  | < 80 | < 80 | < 80 | < 80 |
| COc1ccnc(C(=O)N[C@@H](C)C(=O)O[C@@H](C)[C@H](c2ccc(C)cc2)C(C)C)c1OC(C)=O [Compound 168] |  |  | < 80 | < 80 | > 80 | > 80 |  |  |  |  |

Source: patent US20180186742A1, “PICOLINAMIDES AS FUNGICIDES” (Dow AgroSciences LLC, priority 2017, published 2018)
